Assays:
Test in all cases: relative viability (nuclei count vs DMSO), 5 days (fraction); higher = more cells survive
BMX-IN-1 + Alpelisib = compound: C=CC(=O)Nc1cc(-n2c(=O)ccc3cnc4ccc(-c5ccc(NS(C)(=O)=O)cc5)cc4c32)ccc1C [BMX-IN-1] + Cc1nc(NC(=O)N2CCC[C@H]2C(N)=O)sc1-c1ccnc(C(C)(C)C(F)(F)F)c1 [Alpelisib] (partner 2 µM)
Summary of the method: (§1)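 One day after seeding in 1536-well plates, lung cancer cell lines were dosed by pin tool. Dosing was either single-drug or a fixed anchor-drug dose plus five library-drug doses (not always all listed) in √10 steps. After 5 days, nuclei were stained in one fix-and-stain step and counted on 4× images, and relative viability is the nuclei count of treated wells over that of vehicle wells, given as the median of duplicate plates.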

PAC-1 + Tozasertib = compound: C=CCc1cccc(/C=N/NC(=O)CN2CCN(Cc3ccccc3)CC2)c1O [PAC-1] + Cc1cc(Nc2cc(N3CCN(C)CC3)nc(Sc3ccc(NC(=O)C4CC4)cc3)n2)n[nH]1 [Tozasertib] (partner 0.1 µM)
Summary of the method: as §1

PAC-1 + Dasatinib = compound: C=CCc1cccc(/C=N/NC(=O)CN2CCN(Cc3ccccc3)CC2)c1O [PAC-1] + Cc1nc(Nc2ncc(C(=O)Nc3c(C)cccc3Cl)s2)cc(N2CCN(CCO)CC2)n1 [Dasatinib] (partner 0.075 µM)
Summary of the method: as §1

BMX-IN-1 + Pemetrexed = compound: C=CC(=O)Nc1cc(-n2c(=O)ccc3cnc4ccc(-c5ccc(NS(C)(=O)=O)cc5)cc4c32)ccc1C [BMX-IN-1] + Nc1nc2[nH]cc(CCc3ccc(C(=O)N[C@@H](CCC(=O)O)C(=O)O)cc3)c2c(=O)[nH]1 [Pemetrexed] (partner 0.2 µM)
Summary of the method: as §1

BMX-IN-1 + Vorinostat = compound: C=CC(=O)Nc1cc(-n2c(=O)ccc3cnc4ccc(-c5ccc(NS(C)(=O)=O)cc5)cc4c32)ccc1C [BMX-IN-1] + O=C(CCCCCCC(=O)Nc1ccccc1)NO [Vorinostat] (partner 1 µM)
Summary of the method: as §1

Cell Line	relative viability (BMX-IN-1 + Alpelisib; first compound 0.02 µM)	relative viability (BMX-IN-1 + Alpelisib; first compound 0.2 µM)	relative viability (BMX-IN-1 + Alpelisib; first compound 0.6325 µM)	relative viability (BMX-IN-1 + Alpelisib; first compound 2 µM)	relative viability (PAC-1 + Tozasertib; first compound 0.02 µM)	relative viability (PAC-1 + Tozasertib; first compound 0.06325 µM)	relative viability (PAC-1 + Tozasertib; first compound 0.2 µM)	relative viability (PAC-1 + Tozasertib; first compound 2 µM)	relative viability (PAC-1 + Dasatinib; first compound 0.02 µM)	relative viability (PAC-1 + Dasatinib; first compound 0.06325 µM)	relative viability (PAC-1 + Dasatinib; first compound 0.2 µM)	relative viability (PAC-1 + Dasatinib; first compound 2 µM)	relative viability (BMX-IN-1 + Pemetrexed; first compound 0.02 µM)	relative viability (BMX-IN-1 + Pemetrexed; first compound 0.2 µM)	relative viability (BMX-IN-1 + Pemetrexed; first compound 0.6325 µM)	relative viability (BMX-IN-1 + Pemetrexed; first compound 2 µM)	relative viability (BMX-IN-1 + Vorinostat; first compound 0.02 µM)	relative viability (BMX-IN-1 + Vorinostat; first compound 0.2 µM)	relative viability (BMX-IN-1 + Vorinostat; first compound 0.6325 µM)	relative viability (BMX-IN-1 + Vorinostat; first compound 2 µM)
NCI-H1437	1.26	0.953	1.1	1.05	0.395	0.391	0.378	0.378	0.298	0.425	0.459	0.278	0.351	0.285	0.34	0.292	0.964	0.866	0.896	0.949
NCI-H1651	1.07	1.06	0.943	0.863	0.615	0.786	0.631	0.65	0.391	0.446	0.394	0.393	0.391	0.642	0.781	0.486	0.481	0.585	0.604	0.552
NCI-H1666	1.03	1.02	1.13	1.08	0.553	0.605	0.615	0.544	0.834	0.845	0.793	0.836	0.908	0.881	0.877	0.867	1.03	1.05	1.13	1.15
NCI-H1734	0.668	0.717	0.783	0.652	0.199	0.256	0.23	0.267	0.361	0.521	0.397	0.51	0.451	0.409	0.407	0.377	0.81	0.927	0.866	0.902

Reference: the supplement of paper PMC10307832
